The values that follow come from ChEMBL document CHEMBL4422615, “Novel non-xanthine antagonist of the A2B adenosine receptor: From HTS hit to lead structure” (Eur J Med Chem, 2019).

Converted amounts (≈) assume the structure as drawn. The source made the active and inactive calls. The rule behind the calls is not given here.

Data set [1] in a line: Aqueous solubility of the compound in phosphate buffer at pH 6.5 after 24 hrs by LC/MS/MS analysis. Format: physicochemical.
The nature of data set [2]: Volume of distribution at steady state in mouse at 0.3 mg/kg, iv administered as bolus dose by HPLC-MS/MS analysis. The format is ADME, organism-based. The settings on record: in vivo, read-out: Vdss.
Data set [3] deals with T1, Adenosine receptor A1 (Mus musculus, UniProt Q60612).
T1 sequence (Q60612 whole entry): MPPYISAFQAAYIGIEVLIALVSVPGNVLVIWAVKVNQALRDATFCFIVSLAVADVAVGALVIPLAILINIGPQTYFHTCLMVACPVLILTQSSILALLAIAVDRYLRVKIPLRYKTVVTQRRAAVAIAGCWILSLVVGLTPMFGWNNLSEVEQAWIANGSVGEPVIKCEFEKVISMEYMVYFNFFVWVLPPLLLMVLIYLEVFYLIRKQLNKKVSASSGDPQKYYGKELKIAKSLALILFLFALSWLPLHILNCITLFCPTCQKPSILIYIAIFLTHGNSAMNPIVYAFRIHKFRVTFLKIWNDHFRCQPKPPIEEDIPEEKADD
In words: Antagonist activity at recombinant mouse A1 adenosine receptor expressed in CHO cells after 3 to 4 hrs by luciferase reporter gene assay. Format: cell-based. (In general: In a reporter assay the amount or activity of a reporter protein is the signal.)

The nature of data set [4]: Toxicity in FITC-induced C57BL/6J mouse pulmonary fibrosis model assessed as change in body weight administered as bid dose via gavage pretreated for 45 mins before FITC addition until 72 hrs after FITC application. Conditions: in vivo, po.
Data set [5] concerns the target T2, Adenosine receptor A2b (Homo sapiens, UniProt P29275).
T2 sequence (P29275 whole entry): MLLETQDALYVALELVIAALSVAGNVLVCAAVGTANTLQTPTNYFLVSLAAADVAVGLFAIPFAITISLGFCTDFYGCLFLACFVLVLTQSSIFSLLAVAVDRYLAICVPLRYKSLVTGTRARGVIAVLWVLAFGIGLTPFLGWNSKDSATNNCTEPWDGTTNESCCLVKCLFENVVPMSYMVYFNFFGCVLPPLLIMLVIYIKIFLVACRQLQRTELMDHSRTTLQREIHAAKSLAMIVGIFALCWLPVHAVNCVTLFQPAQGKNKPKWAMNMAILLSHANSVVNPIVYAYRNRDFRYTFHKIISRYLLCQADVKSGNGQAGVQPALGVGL
Description: Antagonist activity at recombinant human A2B adenosine receptor expressed in CHO cells after 3 to 4 hrs by luciferase reporter gene assay. Format: cell-based.

The test system of data set [6] is Mus musculus. Description: Antifibrotic activity in silica-induced C57BL/6J mouse pulmonary fibrosis model assessed as reduction in total number of cells in BALF at 100 to 500 mg/kg, bid administered via gavage treated from day 1 until day 7 after silica application. The format is functional, organism-based.
A short description of data set [7]: Dose normalized AUC in mouse at 1 mg/kg, iv administered as bolus dose by HPLC-MS/MS analysis. Format: ADME, organism-based. Conditions: in vivo.
Data set [8] deals with T3, Adenosine receptor A1 (Homo sapiens, UniProt P30542).
T3 sequence (P30542 whole entry): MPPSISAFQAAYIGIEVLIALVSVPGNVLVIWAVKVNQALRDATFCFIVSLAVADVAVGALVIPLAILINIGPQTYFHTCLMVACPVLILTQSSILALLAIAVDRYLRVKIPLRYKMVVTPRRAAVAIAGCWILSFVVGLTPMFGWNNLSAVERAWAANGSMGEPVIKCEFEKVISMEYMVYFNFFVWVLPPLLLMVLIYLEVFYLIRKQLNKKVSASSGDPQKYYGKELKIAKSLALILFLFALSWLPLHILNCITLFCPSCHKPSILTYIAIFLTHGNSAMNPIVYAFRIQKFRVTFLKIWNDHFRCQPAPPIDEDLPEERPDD
In words: Antagonist activity at recombinant human A1 adenosine receptor expressed in CHO cells after 3 to 4 hrs by luciferase reporter gene assay. Format: cell-based.

Data set [9] can be described thus: MRT in mouse at 0.3 mg/kg, iv administered as bolus dose by HPLC-MS/MS analysis. The settings on record: in vivo. Format: ADME, organism-based.
Data set [10] is described as follows: Clearance in rat blood at 0.3 mg/kg, iv administered as bolus dose by HPLC-MS/MS analysis. Format: ADME, organism-based.
The subject of data set [11] is Mus musculus. Description: Antifibrotic activity in silica-induced C57BL/6J mouse pulmonary fibrosis model assessed as reduction in TGF-beta level in lung tissue homogenate at 100 to 500 mg/kg, bid administered via gavage treated from day 1 until day 7 after silica application by ELISA. Format: functional, organism-based. (An ELISA detects its analyte on a solid surface through an enzyme-linked reagent.)

Data set [12] in a line: MRT in mouse at 1 mg/kg, iv administered as bolus dose by HPLC-MS/MS analysis. Format: ADME, organism-based. Conditions: in vivo.
Data set [13] has as its target T4, Adenosine receptor A2b (Mus musculus, UniProt Q60614).
T4 sequence (Q60614 whole entry): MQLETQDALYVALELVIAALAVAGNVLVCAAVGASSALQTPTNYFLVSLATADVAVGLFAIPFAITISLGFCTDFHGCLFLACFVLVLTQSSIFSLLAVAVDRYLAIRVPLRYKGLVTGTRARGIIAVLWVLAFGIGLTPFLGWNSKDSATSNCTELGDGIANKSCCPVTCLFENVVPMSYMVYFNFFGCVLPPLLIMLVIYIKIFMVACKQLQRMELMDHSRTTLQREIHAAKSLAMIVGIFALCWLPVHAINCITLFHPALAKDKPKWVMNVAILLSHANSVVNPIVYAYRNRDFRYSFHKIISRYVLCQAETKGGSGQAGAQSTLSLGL
Description: Antagonist activity at recombinant mouse A2B adenosine receptor expressed in CHO cells after 3 to 4 hrs by luciferase reporter gene assay. The format is cell-based.

The nature of data set [14]: Fraction unbound in human plasma by equilibrium dialysis method. Format: ADME, cell-free. A general note: In equilibrium dialysis only unbound substance equilibrates across the membrane.
Data set [15] is described as follows: Volume of distribution at steady state in rat at 0.3 mg/kg, iv administered as infusion for 15 mins by HPLC-MS/MS analysis. Conditions: in vivo, read-out: Vdss. The format is ADME, organism-based.
A short description of data set [16]: Half life in rat at 1 mg/kg, po for 15 mins by HPLC-MS/MS analysis. Format: ADME, organism-based. Conditions: in vivo.
In data set [17] the target is T5, Nuclear receptor subfamily 1 group I member 2 (Homo sapiens, UniProt O75469).
T5 sequence (O75469 whole entry): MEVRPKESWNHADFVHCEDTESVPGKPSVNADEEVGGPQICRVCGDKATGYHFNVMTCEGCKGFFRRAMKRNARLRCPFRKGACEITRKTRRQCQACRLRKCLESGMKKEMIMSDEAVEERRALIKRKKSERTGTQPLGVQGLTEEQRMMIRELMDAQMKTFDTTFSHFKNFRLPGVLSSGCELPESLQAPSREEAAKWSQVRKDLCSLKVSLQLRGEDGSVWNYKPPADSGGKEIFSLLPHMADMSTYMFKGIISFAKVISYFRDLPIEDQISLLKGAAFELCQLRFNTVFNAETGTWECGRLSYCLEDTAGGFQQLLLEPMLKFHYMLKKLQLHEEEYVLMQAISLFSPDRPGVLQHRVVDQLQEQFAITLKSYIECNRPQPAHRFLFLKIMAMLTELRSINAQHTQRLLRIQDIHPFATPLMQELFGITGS
Description: Activation of PXR in human HepG2 cells assessed as induction of CYP3A4 expression by luciferase reporter gene assay. The format is ADME, cell-based.

For data set [18], the system named is Mus musculus. Description: Antifibrotic activity in FITC-induced C57BL/6J mouse pulmonary fibrosis model assessed as reduction in IL-6 level in lung tissue homogenate at 100 to 500 mg/kg, bid administered via gavage pretreated for 45 mins before FITC addition until 72 hrs after FITC application by ELISA. The format is functional, organism-based.

As usually defined, the solubility is the dissolved amount per volume that the medium holds. Lower therefore signals a poorly soluble substance. In general, IC50 refers to the point on the concentration scale where inhibition reaches its midpoint. The MRT is the average time that molecules of a dose stay in the body. What is called clearance is the rate of elimination divided by the concentration. A high value points to efficient removal. The term fraction unbound denotes the share of the substance not bound to proteins or other matrix. High values mean weak binding, low ones extensive binding. As usually defined, the half-life is how long it takes for the measured level to halve. The low end stands for fast loss, the high end for slow loss. `CCn1c(=O)c2c(C)c(C(=O)N3CCC(O)CC3)sc2n(CCC(F)(F)F)c1=O`: in data set [1], the concentration in solution (solubility at 24 h) came to 410 µg/mL (≈ 946 µM). The Vd stood at 0.4 L/kg in data set [2] and 1.5 L/kg in data set [15]. The IC50 in [3] was more than 6700 nM; in data set [5] it was 66 nM; in data set [8], 1300 nM; in [13], 400 nM. In data set [4], the Activity result is given as “Non-Toxic”. The outcome in data set [6] was inactive. In data set [7], this compound registered an AUC/dose of 1 kg·h/L. Moreover, the MRT came out at 0.65 h in data set [9] and 1.2 h in data set [12]. The compound also showed a clearance in [10] of 23.3 mL/min/kg. Also, the outcome in data set [11] and in data set [18] was Active. In data set [14], this compound came in with a fraction unbound of 0.6. This compound showed a half-life in data set [16] of 1.4 h. Also, the MEC in [17] stood at 21 ×10⁻⁶ mol/L.
